Data as given in patent publication US7208500B2, “Thienopyridine-phenylacetamides and their derivatives useful as new anti-angiogenic agents” (Agouron Pharmaceuticals, Inc., priority 2003, dated 2007).

Experiments:
[1] = biological target: T1, unphosphorylated VEGF-R2D50 (FLVK), cytosolic domain of human VEGF-R2 (Homo sapiens, UniProt P35968, DEL940-989/E990V); test: VEGF-R2 coupled spectrophotometric assay (FLVK); format: biochemical
T1 construct: VEGF-R2D50 contains residues 806–939 and 990–1171; made in house; host or cells: baculovirus/insect cell system
T1 sequence (P35968 with tags, fused parts or gaps DEL940-989/E990V limits assumed): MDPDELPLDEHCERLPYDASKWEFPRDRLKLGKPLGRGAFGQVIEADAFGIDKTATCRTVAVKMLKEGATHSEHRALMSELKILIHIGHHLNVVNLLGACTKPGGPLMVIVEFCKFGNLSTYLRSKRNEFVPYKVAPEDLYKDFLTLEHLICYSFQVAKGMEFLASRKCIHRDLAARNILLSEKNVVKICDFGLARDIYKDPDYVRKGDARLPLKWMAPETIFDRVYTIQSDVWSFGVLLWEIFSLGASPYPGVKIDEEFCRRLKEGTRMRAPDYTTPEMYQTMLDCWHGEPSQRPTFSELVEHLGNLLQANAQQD
Outline: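 Unphosphorylated VEGF-R2D50 (5–40 nM, baculovirus-expressed) was assayed with 3 mM ATP, 20 mM poly(E4Y1), 60 mM MgCl2 and 2 mM MnCl2 in HEPES pH 7.5. ADP formation was coupled via PK/LDH to NADH oxidation and followed at A340. Ki came from activity at varying compound concentrations fitted by the Morrison equation.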

[2] = biological target: T2, FGF-R1 intracellular kinase domain (Homo sapiens, UniProt P11362, C488A/C584S/L457V); test: FGF-R spectrophotometric assay; format: biochemical; details: 50 nM test compound; read-out: FGF-P (% inh @ 50 nM)
T2 construct: starting from the endogenous methionine residue 456 to glutamate 766; made in house; host or cells: baculovirus vector expression system
T2 sequence (P11362 456-766 L457V/C488A/C584S): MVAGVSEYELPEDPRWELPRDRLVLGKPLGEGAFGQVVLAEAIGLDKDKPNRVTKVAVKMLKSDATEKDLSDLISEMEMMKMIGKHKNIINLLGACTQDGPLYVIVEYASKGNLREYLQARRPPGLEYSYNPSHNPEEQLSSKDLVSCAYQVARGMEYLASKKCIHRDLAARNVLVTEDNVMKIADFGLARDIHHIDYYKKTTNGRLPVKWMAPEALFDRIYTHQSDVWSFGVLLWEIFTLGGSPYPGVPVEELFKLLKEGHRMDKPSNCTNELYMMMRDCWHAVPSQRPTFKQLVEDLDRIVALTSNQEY
Outline: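 Human FGF-R1 kinase domain (Met456–Glu766, L457V/C488A/C584S) expressed in baculovirus. Spectrophotometric kinase assay run as for VEGF-R2 with 50 nM FGF-R, 2 mM ATP and 15 mM poly(E4Y1).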

[3] = tested on: human umbilical vein endothelial cells (HUVEC); test: HUVEC + VEGF proliferation assay; format: cell-based; details: VEGF-stimulated proliferation, final VEGF 6 ng/mL, 72 hours, MTT
Protocol: This assay determines the ability of a test compound to inhibit the growth factor-stimulated proliferation of human umbilical vein endothelial cells (“HUVEC”). HUVEC cells (passage 3–4, Clonetics, Corp.) were thawed into EGM2 culture medium (Clonetics Corp) in T75 flasks. Fresh EGM2 medium was added to the flasks 24 hours later. Four or five days later, cells were exposed to another culture medium (F12K medium supplemented with 10% fetal bovine serum (FBS), […] endothelial cell growth supplement (ECGS), and 0.1 mg/mL heparin). Exponentially-growing HUVEC cells were used in experiments thereafter. Ten to twelve thousand HUVEC cells were plated in 96-well dishes in […] of rich, culture medium (described above). The cells were allowed to attach for 24 hours in this medium. The medium was then removed by aspiration and […] of starvation media (F12K+1% FBS) was added to each well. After 24 hours, […] of test agent dissolved in 1% DMSO in starvation medium or this vehicle alone was added into each treatment well; the final DMSO concentration was 0.1%. One hour later, […] of VEGF (30 ng/mL) in starvation media was added to all wells except those containing untreated controls; the final VEGF concentration was 6 ng/mL. Cellular proliferation was quantified 72 hours later by MTT dye reduction, at which time cells were exposed for 4 hours MTT (Promega Corp.). Dye reduction was stopped by addition of a stop solution (Promega Corp.) and absorbance at 595 nm was determined on a 96-well spectrophotometer plate reader.

| Compound | Ki [1] | inhibition at 0.05 µM [2] | IC50 [3] |
| --- | --- | --- | --- |
| O=C(Cc1ccc(Oc2ccnc3cc(C(=O)N4CCC4)sc23)cc1Cl)Nc1ccc(Cl)cn1 [Example 50, 2-{4-[2-(Azetidine-1-carbonyl)-thieno[3,2-b]pyridin-7-yloxy]-2-chloro-phenyl}-N-(5-chloro-pyridin-2-yl)-acetamide] | 0.001 to 0.01 µM | > 10% | > 0.01 µM |
| CNC(=O)C(O)c1ccc(Oc2ccnc3cc(C(=O)N4CCC4)sc23)cc1 (stereo not drawn) [Example 74, 2-{4-[2-(Azetidine-1-carbonyl)-thieno[3,2-b]pyridin-7-yloxy]-phenyl}-2-hydroxy-N-methyl-acetamide] | 0.001 to 0.01 µM | 0 to 5% | > 0.01 µM |
| O=C(Cc1ccc(Oc2ccnc3cc(C(=O)N4CCC4)sc23)cc1Cl)Nc1ccccn1 [Example 51, 2-{4-[2-(Azetidine-1-carbonyl)-thieno[3,2-b]pyridin-7-yloxy]-2-chloro-phenyl}-N-pyridin-2-yl-acetamide] | 0.001 to 0.01 µM | 0 to 5% | > 0.01 µM |
| O=C(Cc1ccc(Oc2ccnc3cc(C(=O)N4CC[C@@H](O)C4)sc23)cc1Cl)Nc1ccccn1 [Example 61, 2-{2-Chloro-4-[2-((R)-3-hydroxy-pyrrolidine-1-carbonyl)-thieno[3,2-b]pyridin-7-yloxy]-phenyl}-N-pyridin-2-yl-acetamide] | 0.001 to 0.01 µM | 0 to 5% | > 0.01 µM |
| CO[C@@H]1CCN(C(=O)c2cc3nccc(Oc4ccc(CC(=O)Nc5ccccn5)c(Cl)c4)c3s2)C1 [Example 62, 2-{2-Chloro-4-[2-((R)-3-methoxy-pyrrolidine-1-carbonyl)-thieno[3,2-b]pyridin-7-yloxy]-phenyl}-N-pyridin-2-yl-acetamide] | 0.001 to 0.01 µM | 0 to 5% | > 0.01 µM |
| O=C(Cc1ccc(Oc2ccnc3cc(C(=O)N4CCC4)sc23)cc1)Nc1ccc(Br)cn1 [Example 30, 2-{4-[2-(Azetidine-1-carbonyl)-thieno[3,2-b]pyridin-7-yloxy]-phenyl}-N-(5-bromo-pyridin-2-yl)-acetamide] | < 0.001 µM | 0 to 5% | 0.001 to 0.01 µM |
| O=C(Cc1ccc(Oc2ccnc3cc(C(=O)N4CCC4)sc23)cc1)Nc1ccc2ccccc2n1 [Example 33, 2-{4-[2-(Azetidine-1-carbonyl)-thieno[3,2-b]pyridin-7-yloxy]-phenyl}-N-quinolin-2-yl-acetamide] | < 0.001 µM | 0 to 5% | > 0.01 µM |
| Cc1cc(NC(=O)Cc2ccc(Oc3ccnc4cc(C(=O)N5CCC5)sc34)cc2)no1 [Example 41, 2-{4-[2-(Azetidine-1-carbonyl)-thieno[3,2-b]pyridin-7-yloxy]-phenyl}-N-(5-methyl-isoxazol-3-yl)-acetamide] | 0.001 to 0.01 µM | 5 to 10% | 0.001 to 0.01 µM |
| Cc1cc(C)nc(NC(=O)Cc2ccc(Oc3ccnc4cc(C(=O)N5CC[C@@H](N(C)C)C5)sc34)cc2)c1 [Example 4, 2-{4-[2-((R)-3-Dimethylamino-pyrrolidine-1-carbonyl)-thieno[3,2-b]pyridin-7-yloxy]-phenyl}-N-(4,6-dimethyl-pyridin-2-yl)-acetamide] | < 0.001 µM | 5 to 10% | 0.001 to 0.01 µM |
| Cn1ccnc1-c1cc2nccc(Oc3ccc(CC(=O)Nc4cc5ccccc5cn4)cc3)c2s1 [Example 12, N-Isoquinolin-3-yl-2-(4-[2-(1-methyl-1H-imidazol-2-yl)-thieno[3,2-b]pyridin-7-yloxy]-phenyl}-acetamide] | < 0.001 µM | 5 to 10% | > 0.01 µM |
| Cc1cc(C)nc(NC(=O)Cc2ccc(Oc3ccnc4cc(C(=O)N5CCC5)sc34)cc2Cl)c1 [Example 49, 2-{4-[2-(Azetidine-1-carbonyl)-thieno[3,2-b]pyridin-7-yloxy]-2-chloro-phenyl}-N-(4,6-dimethyl-pyridin-2-yl)-acetamide] | < 0.001 µM | > 10% | 0.001 to 0.01 µM |
| O=C(Cc1ccc(Oc2ccnc3cc(C(=O)N4CC[C@@H](O)C4)sc23)cc1)Nc1ccccc1 [Example 20, 2-{4-[2-((R)-3-Hydroxy-pyrrolidine-1-carbonyl)-thieno[3,2-b]pyridin-7-yloxy]-phenyl}-N-phenyl-acetamide] | 0.001 to 0.01 µM | 0 to 5% | 0.001 to 0.01 µM |
| CN(C)C(=O)c1cc2nccc(Oc3ccc(CC(=O)Nc4ccc(Cl)cn4)cc3)c2s1 [Example 8, 7-{4-[(5-Chloro-pyridin-2-ylcarbamoyl)-methyl]-phenoxy}-thieno[3,2-b]pyridine-2-carboxylic acid dimethylamide] | 0.001 to 0.01 µM | 0 to 5% | > 0.01 µM |
| Cc1cc(NC(=O)Cc2ccc(Oc3ccnc4cc(C(=O)N5CCC5)sc34)cc2Cl)on1 [Example 53, 2-{4-[2-(Azetidine-1-carbonyl)-thieno[3,2-b]pyridin-7-yloxy]-2-chloro-phenyl}-N-(3-methyl-isoxazol-5-yl)-acetamide] | < 0.001 µM | 0 to 5% | 0.001 to 0.01 µM |
